pKi: −log10 of the molar value.
Legend:
[1] = target: human dopamine D2 receptor (hD2R) (Homo sapiens, UniProt P14416); test: Human D2 receptor binding assay ([^3H]-Spiperone); settings: CHO cells expressing hD2R, geometric mean of 2-5 determinations unless marked b (single determination)
[2] = target: human dopamine D3 receptor (hD3R) (Homo sapiens, UniProt P35462); test: Human D3 receptor binding assay ([^3H]-7-OH-DPAT); settings: CHO cells expressing hD3R, geometric mean of 2-5 determinations unless marked b (single determination), read-out: hD3 in CHO cells Ki
human dopamine D3 receptor (hD3R), sequence (P35462 whole entry): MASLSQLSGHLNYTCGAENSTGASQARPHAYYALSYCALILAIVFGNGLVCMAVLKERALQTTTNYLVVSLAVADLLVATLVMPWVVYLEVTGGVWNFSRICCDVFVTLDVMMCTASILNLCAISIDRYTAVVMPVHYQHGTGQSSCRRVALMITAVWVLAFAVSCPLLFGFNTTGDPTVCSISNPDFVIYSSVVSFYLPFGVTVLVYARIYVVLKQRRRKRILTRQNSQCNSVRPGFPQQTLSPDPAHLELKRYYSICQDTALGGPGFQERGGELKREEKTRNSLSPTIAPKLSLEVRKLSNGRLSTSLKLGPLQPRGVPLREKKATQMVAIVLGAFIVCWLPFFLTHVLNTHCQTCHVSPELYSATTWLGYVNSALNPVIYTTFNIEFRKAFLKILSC

human dopamine D2 receptor (hD2R), sequence (P14416 whole entry): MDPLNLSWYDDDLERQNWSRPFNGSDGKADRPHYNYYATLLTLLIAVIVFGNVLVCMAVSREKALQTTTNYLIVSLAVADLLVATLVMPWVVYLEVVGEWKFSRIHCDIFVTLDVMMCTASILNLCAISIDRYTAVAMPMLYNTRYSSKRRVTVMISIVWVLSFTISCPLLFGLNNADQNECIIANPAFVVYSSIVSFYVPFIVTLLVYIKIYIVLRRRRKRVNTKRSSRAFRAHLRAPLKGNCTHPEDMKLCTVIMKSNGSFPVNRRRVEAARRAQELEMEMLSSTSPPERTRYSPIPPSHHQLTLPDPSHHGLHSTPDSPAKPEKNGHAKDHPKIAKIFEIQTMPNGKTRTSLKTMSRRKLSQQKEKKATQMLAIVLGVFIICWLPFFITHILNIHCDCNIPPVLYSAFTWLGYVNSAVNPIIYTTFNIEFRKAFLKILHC

pKi [1] | pKi [2] | SMILES
6.14 | 8.12 | COc1nc2c(cc1NS(=O)(=O)c1ccc(OC3CCOCC3)cc1)CCN(C)CC2 [Example 78, N-(2-methoxy-7-methyl-6,7,8,9-tetrahydro-5H-pyrido[2,3-d]azepin-3-yl)-4-(tetrahydro-2H-pyran-4-yloxy)benzenesulfonamide]
6.39 | 8.44 | COc1nc2c(cc1NS(=O)(=O)c1ccc(C3(C)CCOCC3)cc1)CCN(C)CC2 [Example 79, N-(2-methoxy-7-methyl-6,7,8,9-tetrahydro-5H-pyrido[2,3-d]azepin-3-yl)-4-(4-methyltetrahydro-2H-pyran-4-yl)benzenesulfonamide]
6.62 | 8.75 | COc1nc2c(cc1NS(=O)(=O)c1ccc(C3(F)CCOCC3)cc1)CCN(C)CC2 [Example 80, 4-(4-fluorotetrahydro-2H-pyran-4-yl)-N-(2-methoxy-7-methyl-6,7,8,9-tetrahydro-5H-pyrido[2,3-d]azepin-3-yl)benzenesulfonamide]
6.51 | 8.92 | COc1nc2c(cc1NS(=O)(=O)c1ccc([C@H]3C[C@@H](OC)C3)cc1)CCN(C)CC2 [Example 81, 4-(cis-3-methoxycyclobutyl)-N-(2-methoxy-7-methyl-6,7,8,9-tetrahydro-5H-pyrido[2,3-d]azepin-3-yl)benzenesulfonamide]
6.47 | 8.36 | COc1nc2c(cc1NS(=O)(=O)c1ccc(OC3CCOC3)cc1)CCN(C)CC2 (stereo not drawn) [Example 82, N-(2-methoxy-7-methyl-6,7,8,9-tetrahydro-5H-pyrido[2,3-d]azepin-3-yl)-4-(tetrahydrofuran-3-yloxy)benzenesulfonamide]
7.12 | 8.78 | COc1nc2c(cc1NS(=O)(=O)c1ccc([C@H](C)OC)cc1)CCN(C)CC2 [Example 89, 4-[(1S)-1-methoxyethyl]-N-(2-methoxy-7-methyl-6,7,8,9-tetrahydro-5H-pyrido[2,3-d]azepin-3-yl)benzenesulfonamide]
6.68 | 8.71 | COc1nc2c(cc1NS(=O)(=O)c1ccc([C@@H](C)OC)cc1)CCN(C)CC2 [Example 90, 4-[(1R)-1-methoxyethyl]-N-(2-methoxy-7-methyl-6,7,8,9-tetrahydro-5H-pyrido[2,3-d]azepin-3-yl)benzenesulfonamide]
6.68 | 8.47 | COc1nc2c(cc1NS(=O)(=O)c1ccc(O[C@H]3CCOC3)cc1)CCN(C)CC2 [Example 91, N-(2-methoxy-7-methyl-6,7,8,9-tetrahydro-5H-pyrido[2,3-d]azepin-3-yl)-4-[(3S)-tetrahydrofuran-3-yloxy]benzenesulfonamide]
6.22 | 8.26 | COc1nc2c(cc1NS(=O)(=O)c1ccc([C@H]3CC[C@@H](OC)CC3)cc1)CCN(C)CC2 [Example 92, 4-(cis-4-methoxycyclohexyl)-N-(2-methoxy-7-methyl-6,7,8,9-tetrahydro-5H-pyrido[2,3-d]azepin-3-yl)benzenesulfonamide]
7.34 | 9.22 | COc1nc2c(cc1NS(=O)(=O)c1ccc(C3(OC)CCCC3)cc1)CCN(C)CC2 [Example 95, 4-(1-methoxycyclopentyl)-N-(2-methoxy-7-methyl-6,7,8,9-tetrahydro-5H-pyrido[2,3-d]azepin-3-yl)benzenesulfonamide]
6.50 | 8.55 | CCN1CCc2cc(NS(=O)(=O)c3ccc([C@]4(F)C[C@H](OC)C4)cc3)c(OC)nc2CC1 [Example 96, N-(7-ethyl-2-methoxy-6,7,8,9-tetrahydro-5H-pyrido[2,3-d]azepin-3-yl)-4-(trans-1-fluoro-3-methoxycyclobutyl)benzenesulfonamide]
6.01 | 8.23 | COc1nc2c(cc1NS(=O)(=O)c1ccc(OC3CCOC3)nc1)CCN(C)CC2 (stereo not drawn) [Example 97, N-(2-methoxy-7-methyl-6,7,8,9-tetrahydro-5H-pyrido[2,3-d]azepin-3-yl)-6-(tetrahydrofuran-3-yloxy)pyridine-3-sulfonamide]
6.31 | 8.40 | COc1nc2c(cc1NS(=O)(=O)c1ccc([C@@H]3CCCO3)cc1)CCN(C)CC2 [Example 98, N-(2-methoxy-7-methyl-6,7,8,9-tetrahydro-5H-pyrido[2,3-d]azepin-3-yl)-4-[(2S)-tetrahydrofuran-2-yl]benzenesulfonamide]
6.50 | 8.52 | COc1nc2c(cc1NS(=O)(=O)c1ccc([C@H]3CCCO3)cc1)CCN(C)CC2 [Example 99, N-(2-methoxy-7-methyl-6,7,8,9-tetrahydro-5H-pyrido[2,3-d]azepin-3-yl)-4-[(2R)-tetrahydrofuran-2-yl]benzenesulfonamide]
6.18 | 8.20 | COc1nc2c(cc1NS(=O)(=O)c1ccc(C3(OC)CCCC3)nc1)CCN(C)CC2 [Example 100, 6-(1-methoxycyclopentyl)-N-(2-methoxy-7-methyl-6,7,8,9-tetrahydro-5H-pyrido[2,3-d]azepin-3-yl)pyridine-3-sulfonamide]
6.17 | 8.20 | CCN1CCc2cc(NS(=O)(=O)c3ccc(C4(F)CCCC4)nc3)c(OC)nc2CC1 [Example 101, N-(7-ethyl-2-methoxy-6,7,8,9-tetrahydro-5H-pyrido[2,3-d]azepin-3-yl)-6-(1-fluorocyclopentyl)pyridine-3-sulfonamide]
6.49 | 8.55 | CCN1CCc2cc(NS(=O)(=O)c3ccc(C4CCCC4)nc3)c(OC)nc2CC1 [Example 102, 6-cyclopentyl-N-(7-ethyl-2-methoxy-6,7,8,9-tetrahydro-5H-pyrido[2,3-d]azepin-3-yl)pyridine-3-sulfonamide]
8.41 | 9.41 | COc1nc2c(cc1NS(=O)(=O)c1ccc([C@H]3CCCCO3)c(C)c1)CCN(C)CC2 [Example 104, N-(2-methoxy-7-methyl-6,7,8,9-tetrahydro-5H-pyrido[2,3-d]azepin-3-yl)-3-methyl-4-[(2R)-tetrahydro-2H-pyran-2-yl]benzenesulfonamide]
7.58 | 9.34 | COc1nc2c(cc1NS(=O)(=O)c1ccc([C@@H]3CCCCO3)c(C)c1)CCN(C)CC2 [Example 105, N-(2-methoxy-7-methyl-6,7,8,9-tetrahydro-5H-pyrido[2,3-d]azepin-3-yl)-3-methyl-4-[(2S)-tetrahydro-2H-pyran-2-yl]benzenesulfonamide]
8.14 | 9.34 | CCN1CCc2cc(NS(=O)(=O)c3ccc([C@H]4CCCCO4)c(C)c3)c(OC)nc2CC1 [Example 107, N-(7-ethyl-2-methoxy-6,7,8,9-tetrahydro-5H-pyrido[2,3-d]azepin-3-yl)-3-methyl-4-[(2R)-tetrahydro-2H-pyran-2-yl]benzenesulfonamide]
7.60 | 8.90 | COc1nc2c(cc1NS(=O)(=O)c1ccc([C@H]3CCCCO3)c(F)c1)CCN(C)CC2 [Example 110, 3-fluoro-N-(2-methoxy-7-methyl-6,7,8,9-tetrahydro-5H-pyrido[2,3-d]azepin-3-yl)-4-[(2R)-tetrahydro-2H-pyran-2-yl]benzenesulfonamide]
7.00 | 8.64 | COc1nc2c(cc1NS(=O)(=O)c1ccc([C@@H]3CCCCO3)c(F)c1)CCN(C)CC2 [Example 111, 3-fluoro-N-(2-methoxy-7-methyl-6,7,8,9-tetrahydro-5H-pyrido[2,3-d]azepin-3-yl)-4-[(2S)-tetrahydro-2H-pyran-2-yl]benzenesulfonamide]
7.34 | 8.63 | CCN1CCc2cc(NS(=O)(=O)c3ccc(C4(F)CCCCC4)nc3)c(OC)nc2CC1 [Example 112, N-(7-ethyl-2-methoxy-6,7,8,9-tetrahydro-5H-pyrido[2,3-d]azepin-3-yl)-6-(1-fluorocyclohexyl)pyridine-3-sulfonamide]
6.84 | 8.40 | COc1nc2c(cc1NS(=O)(=O)c1ccc(C3CCC3)nc1)CCN(C)CC2 [Example 113, 6-cyclobutyl-N-(2-methoxy-7-methyl-6,7,8,9-tetrahydro-5H-pyrido[2,3-d]azepin-3-yl)pyridine-3-sulfonamide]
6.84 | 8.50 | CCN1CCc2cc(NS(=O)(=O)c3ccc(C4CCCCC4)nc3)c(OC)nc2CC1 [Example 114, 6-cyclohexyl-N-(7-ethyl-2-methoxy-6,7,8,9-tetrahydro-5H-pyrido[2,3-d]azepin-3-yl)pyridine-3-sulfonamide]
6.67 | 7.83 | COc1nc2c(cc1NS(=O)(=O)c1ccc(C)cc1)CCN(CCCF)CC2 [Example 115, N-[7-(3-fluoropropyl)-2-methoxy-6,7,8,9-tetrahydro-5H-pyrido[2,3-d]azepin-3-yl]-4-methylbenzenesulfonamide]
6.42 | 8.14 | COc1nc2c(cc1NS(=O)(=O)c1cnc(OC3CCC3)nc1)CCN(C)CC2 [Example 116, 2-(cyclobutyloxy)-N-(2-methoxy-7-methyl-6,7,8,9-tetrahydro-5H-pyrido[2,3-d]azepin-3-yl)pyrimidine-5-sulfonamide]
8.27 | 9.24 | CCCc1ccc(S(=O)(=O)Nc2cc3c(nc2OC)CCN(C)CC3)cc1 [Example 118, N-(2-methoxy-7-methyl-6,7,8,9-tetrahydro-5H-pyrido[2,3-d]azepin-3-yl)-4-propylbenzenesulfonamide]

SMILES | pKi [1] | pKi [2]
COc1nc2c(cc1NS(=O)(=O)c1ccc(OC(C)(C)C)nc1)CCN(C)CC2 [Example 103, 6-tert-butoxy-N-(2-methoxy-7-methyl-6,7,8,9-tetrahydro-5H-pyrido[2,3-d]azepin-3-yl)pyridine-3-sulfonamide] | 7.34 | 8.73
COc1nc2c(cc1NS(=O)(=O)c1cnc(OC(C)(C)C)nc1)CCN(C)CC2 [Example 117, 2-tert-butoxy-N-(2-methoxy-7-methyl-6,7,8,9-tetrahydro-5H-pyrido[2,3-d]azepin-3-yl)pyrimidine-5-sulfonamide] | 6.33 | 8.00

— patent publication US10590128B2, “6,7,8,9-tetrahydro-5H-pyrido[2,3-d]azepine dopamine D3 ligands” (Pfizer Inc., priority 2016, dated 2020)
